We go through 19 compounds from publication PMC7309560, “Discovery of Small Molecule Inhibitors Targeting the Sonic Hedgehog” (Frontiers in Chemistry, 2020).

Read-outs that look alike come from different tables or passages of the source.

In assay [1] the test system is Hh signaling pathway (8 × Gli-binding site luciferase reporter, Shh-LIGHT2 cells). The assay is described as follows: Dual-luciferase reporter assay in Shh-LIGHT2 cells. It is filed as cell-based. Particulars: for IC50: Shh Light2, 36 h, ShhN-conditioned medium, 36 h, mean ± SD for three independent experiments; for inhibition at 5 µM: read-out: Inhibition rate for cell assay at 5 μM. The method, then:
A dual-luciferase reporter assay was performed as previously described (Zhan et al., [2014]; Kong et al., [2015]). Shh-LIGHT2 cells, an Hh activity reporter cell line derived from NIH-3T3 cells by stably expressing 8 × Gli-binding site luciferase reporter (8 × GBS-luciferase) plasmid provided by Sasaki et al. ([1999]) and pRL-Renilla luciferase plasmid, were seeded into 96-well plates. After 24 h, ShhN-conditioned medium (ShhN CM) was added, and cells were exposed to molecules. The luciferase activities of cells were measured 36 h later with a Dual-Luciferase Reporter Assay System (E1960, Promega), according to the manufacturer's instructions, in a luminometer (Molecular Devices, Sunnyvale, CA). The firefly luciferase values were normalized to the Renilla luciferase activities, and IC50 values were fitted with the Hill equation with OriginPro 9.
We further tested the 45 Shh-binding compounds to assess their effects on the Hh signaling pathway. […] Compounds with similar framework were merged, resulting in seven hits.
All 22 derivatives of 7 were tested at 5 μM with the dual-luciferase reporter cell assay (Table S6).

In assay [2] the target is T1, ShhN-EGFP (Homo sapiens, UniProt Q15465).
T1 construct: PET-28(a)-human ShhN (Shh 24-197) plasmid; His (N); made in house; host or cells: Escherichia coli Rosetta (DE3)
T1 sequence (Q15465 24-197): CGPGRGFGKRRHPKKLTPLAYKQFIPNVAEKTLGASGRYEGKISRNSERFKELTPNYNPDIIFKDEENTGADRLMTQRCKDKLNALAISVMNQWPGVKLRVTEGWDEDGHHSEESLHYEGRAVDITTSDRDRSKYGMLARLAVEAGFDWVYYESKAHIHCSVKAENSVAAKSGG
The assay is described as follows: Microscale thermophoresis (MST) binding. The method, then: Chuanmao Zhang. EGFP gene was subcloned into pET-28(a)-human ShhN vector to build ShhN-EGFP plasmids. All mutations were introduced by PCR and confirmed by sequencing with GENEWIZ (China).
Measurements were performed using a Monolith NT. […] MST-optimized buffer (50 mM Tris·HCl, pH 7.4, 150 mM NaCl, 10 mM MgCl2, 0.1% Tween-20, 0.1% Pluronic-F127, 5% DMSO) was applied. Measurements were carried out using blue LED color with 20% LED power and 40% MST power. The concentration of ShhN-EGFP was adjusted according to the fluorescence. Mean values and standard deviations were calculated from experiments performed at least in triplicate. Nanotemper analysis software V1.5.41 was applied to analyze data.
We used microscale thermophoresis (MST) to quantitatively measure binding constants between the compounds and ShhN (Table S5 and Figure S1). A ShhN-EGFP fusion protein was constructed, expressed, and purified from bacterial cells. In MST binding assays, ShhN-EGFP was kept at a constant concentration according to the fluorescence signal. Different concentrations of the molecules were tested and dissociation constants (Kd) were derived.

For assay [3], the target named is T2, ShhN (Homo sapiens, UniProt Q15465).
T2 construct: PET-28(a)-human ShhN (Shh 24-197) plasmid; His (N); made in house; host or cells: Escherichia coli Rosetta (DE3)
T2 sequence (Q15465 24-197): as above
The assay is described as follows: NanoDSF thermal stability. It is filed as binding. To be noted: ShhN 0.2 mg/mL. The method, then:
Measurements were performed using a Prometheus NT.48 instrument (NanoTemper Inc., Germany). ShhN was diluted to 0.2 mg/mL in buffer contained 10 mM HEPES, pH 7.4, 150 mM NaCl, and 5% DMSO. Measurements were carried out using 70% power with standard Prometheus NT.48 capillaries. The heating was 1.0°C/min from 20 to 95°C.
To gain further insight into the effects of inhibitors against ShhN, a NanoDSF experiment was conducted.

Assay [4] concerns Gli1 mRNA expression in Ptch+/−p53−/− medulloblastoma cells. The assay is described as follows: Real-time PCR of Gli1 mRNA in Ptch+/-p53-/- medulloblastoma cells. Particulars: RT-qPCR, 36 h exposure, normalized to GUSB. Format: cell-based, mice. The method, then:
Ptch^+/−p53^−/− medulloblastoma cells were cultivated from spontaneous medulloblastoma developed by ptch^+/−; p53^−/− mice. All procedures were preapproved by the Animal Care and Use Committee of Fudan University and performed according to institutional policies. Briefly, medulloblastoma tissues were mechanically minced and digested by collagenase. The cells were routinely cultured using Neurobasal A medium (Invitrogen) plus B-27 supplement (Invitrogen), EGF 20 ng/mL (Invitrogen), bFGF 20 ng/mL (Invitrogen), non-essential amino acids, N-acetylcysteine 60 μg/mL. GDC-0449 was purchased from Biovision (Milpitas, CA). […]
Total RNA was extracted from cells using an RNAiso Plus Kit (TaKaRa, Dalian, China) according to the manufacturer's instructions and processed directly to cDNA by reverse transcription with a SuperScript III Kit (TaKaRa, Dalian, China). Semi-quantitative PCR amplification was conducted using Stratagene mx3005p (Agilent). All quantitative PCR amplifications were performed in triplicate with a SYBR Green Kit (TaKaRa, Dalian, China) in an iCycleriQ system (Bio-Rad, Hercules, CA). […]
Levels of the Shh-induced transcription factor Gli1 are higher in Ptch^+/−p53^−/− medulloblastoma from mice than in control tissues as a result of increased Hh signaling activity (Wetmore et al., [2001]). […] We measured the expression of Gli1 mRNA using RT-qPCR (Figure 2). […]

In assay [5] the test system is Shh. To be noted: Shh inhibitory activity in cellular assays, ref Stanton et al., 2009 (Table 1 prints ref. 14), cited from earlier work.
[6] abbreviates: MST, ShhN-EGFP, mean±SD for three independent experiments, read-out: Kd.

`Cc1cc(C)c(CSC2=NCCN2)c(C)c1CSC1=NCCN1` [Compound 1] showed an IC50 in assay [1] of 2.3 ± 0.2 µM. In assay [2] (setting [6]), the Kd came out at 7 ± 0.8 µM.

`OC(CNCc1ccc2c(c1)OCO2)COc1ccc(-c2csnn2)cc1` (stereo not drawn) [Compound 2] gave an IC50 in assay [1] of 1.7 ± 0.1 µM. In assay [2], this compound came in with a Kd of 8.4 ± 0.9 µM.

`c1ccc(COC(CNC2CCCCC2)CNC2CCCCC2)cc1` [Compound 3] registered an IC50 in assay [1] of 2.2 ± 0.2 µM. Also, in assay [2] (setting [6]), the Kd turned out to be 3.1 ± 0.3 µM.

The compound `CCN(CC)S(=O)(=O)c1ccc(C(=O)Nc2sc3c(c2C(N)=O)CCN(C)C3)cc1` [Compound 4] came in with an IC50 in assay [1] of 2.7 ± 0.2 µM. For the same compound, in assay [2] (ShhN-EGFP), the “MST binding signal / dose-response (in words)” value is recorded as “did not reach saturation”.

Take `OCCCNCC(O)Cn1c2ccc(Br)cc2c2cc(Br)ccc21` (stereo not drawn) [Compound 5]: the IC50 in assay [1] came to 2 ± 0.3 µM. In assay [2], this compound showed a Kd of 4.5 ± 0.6 µM.

`CCOC(=O)c1c(C)n(-c2ccc(C)cc2)c2ccc(OCC(O)CNCCCO)cc12` (stereo not drawn) [Compound 6] displayed an IC50 in assay [1] of 1.4 ± 0.4 µM. Also, the Kd in assay [2] (setting [6]) was 5.8 ± 0.5 µM.

In assay [1], `Nc1nc(NCCCN2CCOCC2)nc(NCc2ccco2)c1[N+](=O)[O-]` [Compound 7] showed an IC50 of 2.2 ± 0.3 µM. For the same compound, in assay [2] (setting [6]), the Kd amounted to 6.2 ± 0.6 µM.

Turning to `Nc1nc(NCC2CCCO2)nc(NCc2ccco2)c1[N+](=O)[O-]` (stereo not drawn) [Compound 7_2d2], in assay [1], the inhibition at 5 µM amounted to 94 ± 4% and the IC50 amounted to 3.2 ± 0.7 µM.

Regarding `Nc1nc(NCCN2CCOCC2)nc(NCc2ccco2)c1[N+](=O)[O-]` [Compound 7_2d3], in assay [1], the inhibition at 5 µM was determined as 68 ± 12% and the IC50 is 2.6 ± 0.3 µM.

For the compound `CCOc1ccc(Nc2nc(N)c([N+](=O)[O-])c(NCc3ccco3)n2)cc1` [Compound 7_2d6], in assay [1], the inhibition at 5 µM is 97 ± 7% and the IC50 amounted to 2 ± 0.8 µM.

Regarding `Nc1nc(Nc2ccc(Cl)cc2)nc(NCc2ccco2)c1[N+](=O)[O-]` [Compound 7_2d7], in assay [1], the inhibition at 5 µM worked out at 102 ± 3% and the IC50 came to 2.1 ± 0.2 µM.

For `Nc1nc(Nc2cccc(F)c2)nc(NCc2ccco2)c1[N+](=O)[O-]` [Compound 7_2d8], in assay [1], the inhibition at 5 µM came to 101 ± 8% and the IC50 came out at 2.4 ± 0.4 µM.

Regarding `Nc1nc(Nc2ccccc2F)nc(NCc2ccco2)c1[N+](=O)[O-]` [Compound 7_2d9], in assay [1], the inhibition at 5 µM came to 94 ± 3% and the IC50 turned out to be 5.9 ± 1.7 µM.

For `c1ccc(Nc2nc(NC3CCCCCC3)nc3c2cnn3-c2ccccc2)cc1` [Compound 7_3d2], in assay [1], the inhibition at 5 µM is 93 ± 1% and the IC50 came to 1.6 ± 0.6 µM.

With `CCN(CC)CCNc1nc(Nc2cccc(Cl)c2)c2cnn(-c3ccccc3)c2n1` [Compound 7_3d3], in assay [1], the inhibition at 5 µM turned out to be 107 ± 1% and the IC50 was roughly 0.4 µM. Moreover, the “Thermal stability of ShhN (in words)” value in assay [3] is given as “improved the thermal stability of ShhN better than 7”.

On to `CCN1CCN(c2nc(Nc3cccc(Cl)c3)c3cnn(-c4ccccc4)c3n2)CC1` [Compound 7_3d4], for which, in assay [1], the inhibition at 5 µM came out at 105 ± 5% and the IC50 came out at 0.6 ± 0.1 µM.

`N#Cc1c(N)nc(NCCCN2CCOCC2)nc1-c1ccc(Cl)cc1` [Compound 7_3d11] came in with an IC50 in assay [1] of 1.2 ± 0.2 µM.

In the case of `CS(=O)(=O)c1ccc(C(=O)Nc2ccc(Cl)c(-c3ccccn3)c2)c(Cl)c1` [GDC-0449], the “Relative mRNA expression of Gli1 (effect in words)” value in assay [4] is given as “positive control for inhibition of the expression of Gli1 mRNA”.

With `O=C(C[C@@H]1C/C=C/CCC(=O)O[C@H](c2ccccc2)CNC1=O)NCc1ccc(Cl)cc1` [Robotnikinin], the IC50 was 4.4 ± 0.9 µM in assay [1], 15 µM in assay [5] and roughly 15 µM in assay [5] (listed as robotnikinin). For the same compound, in assay [4], the “Relative mRNA expression of Gli1 (effect in words)” value is “did not inhibit Gli1 mRNA expression”.
